Measured values as given in PubChem BioAssay AID192 (DTP/NCI, 2004).
“And” between values parts separate entries of the source, which are not always exact repeats. Equal entries are not always repeated. Toxic doses and inconclusive results are not listed.

Test system: BDF1 mice, B16 melanoma ip, median survival T/C
Experiment: NCI In Vivo Anticancer Drug Screen. Data for tumor model B16 Melanoma (intraperitoneal) in B6D2F1 (BDF1) mice
Conditions: endpoint: median survival time, higher = longer survival
In short: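 Survival or tumor size is measured after treatment of tumor-bearing mice and normalised to the vehicle-treated control group.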

[1] = dose: 50.0 mg/kg/injection, schedule: Q01DX009 (ip), vehicle: Klucel (hydroxypropylcellulose) (HPC)
[2] = dose: 100.0 mg/kg/injection, schedule: Q01DX009 (ip), vehicle: Klucel (hydroxypropylcellulose) (HPC)
[3] = dose: 200.0 mg/kg/injection, schedule: Q01DX009 (ip), vehicle: Klucel (hydroxypropylcellulose) (HPC)
[4] = dose: 0.75 mg/kg/injection, schedule: Q01DX009 (ip), vehicle: Klucel (hydroxypropylcellulose) (HPC)
[5] = dose: 3.0 mg/kg/injection, schedule: Q01DX009 (ip), vehicle: Klucel (hydroxypropylcellulose) (HPC)
[6] = dose: 12.5 mg/kg/injection, schedule: Q01DX009 (ip), vehicle: Klucel (hydroxypropylcellulose) (HPC)
[7] = dose: 25.0 mg/kg/injection, schedule: Q01DX009 (ip), vehicle: Klucel (hydroxypropylcellulose) (HPC)
[8] = dose: 6.25 mg/kg/injection, schedule: Q01DX009 (ip), vehicle: saline
[9] = dose: 12.5 mg/kg/injection, schedule: Q01DX009 (ip), vehicle: saline
[10] = dose: 25.0 mg/kg/injection, schedule: Q01DX009 (ip), vehicle: saline
[11] = dose: 50.0 mg/kg/injection, schedule: Q01DX009 (ip), vehicle: saline
[12] = dose: 100.0 mg/kg/injection, schedule: Q01DX009 (ip), vehicle: saline
[13] = dose: 100.0 mg/kg/injection, schedule: Q01DX009 (ip), vehicle: saline with Tween-80
[14] = dose: 200.0 mg/kg/injection, schedule: Q01DX009 (ip), vehicle: saline with Tween-80
[15] = dose: 50.0 mg/kg/injection, schedule: Q01DX009 (ip), vehicle: saline with Tween-80
[16] = dose: 1.56 mg/kg/injection, schedule: Q01DX009 (ip), vehicle: saline
[17] = dose: 3.12 mg/kg/injection, schedule: Q01DX009 (ip), vehicle: saline

## NC(=O)CCCN1CCCC1=O
dose: 100.0 mg/kg/injection, schedule: Q04DX003 (ip), vehicle: saline
  T/C: 106 % of control
dose: 200.0 mg/kg/injection, schedule: Q04DX003 (ip), vehicle: saline
  T/C: 109 % of control
dose: 400.0 mg/kg/injection, schedule: Q04DX003 (ip), vehicle: saline
  T/C: 106 % of control

## O=S(=O)(c1ccc(NC(=S)N/N=C/c2ccccc2O)cc1)N1CCCCC1
dose: 25.0 mg/kg/injection, schedule: Q01DX009 (ip), vehicle: olive oil, sesame oil, peanut oil
  T/C: 87 % of control
dose: 50.0 mg/kg/injection, schedule: Q01DX009 (ip), vehicle: olive oil, sesame oil, peanut oil
  T/C: 87 % of control

## OC1COC(c2ccco2)OC1 (stereo not given) (tested in a mixture with another compound)
[1]
  T/C: 100 % of control
[2]
  T/C: 100 % of control
[3]
  T/C: 106 % of control

## COc1c(Cl)c2c(c(OC)c1OC)-c1ccc(OC)c(=O)cc1C(NC(C)=O)CC2 (stereo not given)
dose: 0.38 mg/kg/injection, schedule: Q01DX009 (ip), vehicle: Klucel (hydroxypropylcellulose) (HPC)
  T/C: 118 % of control
[4]
  T/C: 123 % of control
[5]
  T/C: 109 % of control

## Cn1cnc([N+](=O)[O-])c1S(=O)(=O)NCN1CCOCC1
[6]
  T/C: 98 % of control
[7]
  T/C: 96 % of control
[1]
  T/C: 97 % of control
[2]
  T/C: 94 % of control

## CC(=O)C1CCC2C3CCC4=CC(=O)CC4(C)C3CCC12C (stereo not given)
dose: 100.0 mg/kg/injection, schedule: Q04DX003 (ip), vehicle: saline with Tween-80
  T/C: 94 % of control
dose: 200.0 mg/kg/injection, schedule: Q04DX003 (ip), vehicle: saline with Tween-80
  T/C: 105 % of control

## CCC[CH2][Hg][O]C(C)=O
dose: 0.63 mg/kg/injection, schedule: Q01DX009 (ip), vehicle: other
  T/C: 99 % of control
dose: 1.25 mg/kg/injection, schedule: Q01DX009 (ip), vehicle: other
  T/C: 89 % of control
dose: 2.5 mg/kg/injection, schedule: Q01DX009 (ip), vehicle: other
  T/C: 86 % of control

## O=C(O)CCNCCO
dose: 400.0 mg/kg/injection, schedule: Q01DX009 (ip), vehicle: saline
  T/C: 97 % of control

## COc1cc2cc3cc4cc(OC)c(OC)cc4c(C)[n+]3cc2cc1OC (tested in a mixture with another compound)
dose: 10.0 mg/kg/injection, schedule: Q01DX009 (ip), vehicle: Klucel (hydroxypropylcellulose) (HPC)
  T/C: 96 % of control
dose: 20.0 mg/kg/injection, schedule: Q01DX009 (ip), vehicle: Klucel (hydroxypropylcellulose) (HPC)
  T/C: 95 % of control

## O=C1c2ccccc2C(=O)c2c(NCCSCCO)ccc(NCCSCCO)c21
dose: 16.0 mg/kg/injection, schedule: Q01DX009 (ip), vehicle: Klucel (hydroxypropylcellulose) (HPC)
  T/C: 94 % of control
dose: 32.0 mg/kg/injection, schedule: Q01DX009 (ip), vehicle: Klucel (hydroxypropylcellulose) (HPC)
  T/C: 103 % of control
dose: 64.0 mg/kg/injection, schedule: Q01DX009 (ip), vehicle: Klucel (hydroxypropylcellulose) (HPC)
  T/C: 96 % of control
dose: 128.0 mg/kg/injection, schedule: Q01DX009 (ip), vehicle: Klucel (hydroxypropylcellulose) (HPC)
  T/C: 88 % of control
dose: 256.0 mg/kg/injection, schedule: Q01DX009 (ip), vehicle: Klucel (hydroxypropylcellulose) (HPC)
  T/C: 87 % of control

## CC(C(=O)O)C(=O)O.[NH2-].[NH2-].[Pt+2]
dose: 0.78 mg/kg/injection, schedule: Q01DX009 (ip), vehicle: Klucel (hydroxypropylcellulose) (HPC)
  T/C: 102 % of control
dose: 1.56 mg/kg/injection, schedule: Q01DX009 (ip), vehicle: Klucel (hydroxypropylcellulose) (HPC)
  T/C: 109 % of control
dose: 3.12 mg/kg/injection, schedule: Q01DX009 (ip), vehicle: Klucel (hydroxypropylcellulose) (HPC)
  T/C: 120 % of control
dose: 6.25 mg/kg/injection, schedule: Q01DX009 (ip), vehicle: Klucel (hydroxypropylcellulose) (HPC)
  T/C: 156 % of control
[8]
  T/C: 124 % of control
[6]
  T/C: 175 % of control
[9]
  T/C: 160 % of control
[7]
  T/C: 216 % of control
[10]
  T/C: 175 % of control
[11]
  T/C: 209 % of control
[12]
  T/C: 202 % of control

## NC(=O)NC1CCCCCCC1
[13]
  T/C: 100 % of control
[14]
  T/C: 93 % of control
dose: 400.0 mg/kg/injection, schedule: Q01DX009 (ip), vehicle: saline with Tween-80
  T/C: 104 % of control

## CNc1n[n+](-c2ccccc2)no1
[9]
  T/C: 119 % of control
[10]
  T/C: 124 % of control

## Cc1cc(C)c(NC(=O)Nc2ccc(Cl)cc2)c(C)c1
[2]
  T/C: 93 % of control
[3]
  T/C: 93 % of control

## CN(C)CC/C=C1\c2ccccc2C(C)(C)c2ccc(Cl)cc21
dose: 25.0 mg/kg/injection, schedule: Q01DX009 (ip), vehicle: saline with Tween-80
  T/C: 118 % of control
[15]
  T/C: 92 % of control

## CCCCCCCCCCCCCCNC(=O)CCl
[2]
  T/C: 113 % of control
[3]
  T/C: 106 % of control

## CC(=O)OCC1OC(OC(C)=O)C(NC(=O)N(CCCl)N=O)C(OC(C)=O)C1OC(C)=O (stereo not given)
[4]
  T/C: 162 % of control
dose: 1.0 mg/kg/injection, schedule: Q01DX009 (ip), vehicle: Klucel (hydroxypropylcellulose) (HPC)
  T/C: 152 % of control
dose: 1.5 mg/kg/injection, schedule: Q01DX009 (ip), vehicle: Klucel (hydroxypropylcellulose) (HPC)
  T/C: 180 % of control
dose: 2.0 mg/kg/injection, schedule: Q01DX009 (ip), vehicle: Klucel (hydroxypropylcellulose) (HPC)
  T/C: 188 % of control and 287 % of control
[5]
  T/C: 208 % of control
dose: 4.0 mg/kg/injection, schedule: Q01DX009 (ip), vehicle: Klucel (hydroxypropylcellulose) (HPC)
  T/C: 232 % of control

## O=S(=O)(Nc1ccc(-c2ccccc2)cc1)c1ccccc1
[15]
  T/C: 100 % of control
[13]
  T/C: 91 % of control
[14]
  T/C: 89 % of control

## CCN(CC)CCNc1ccc(C)c2sc3ccccc3c(=O)c12
dose: 6.25 mg/kg/injection, schedule: Q01DX009 (ip), vehicle: suspension in saline
  T/C: 103 % of control
dose: 12.5 mg/kg/injection, schedule: Q01DX009 (ip), vehicle: suspension in saline
  T/C: 105 % of control
dose: 25.0 mg/kg/injection, schedule: Q01DX009 (ip), vehicle: suspension in saline
  T/C: 103 % of control
dose: 50.0 mg/kg/injection, schedule: Q01DX009 (ip), vehicle: suspension in saline
  T/C: 102 % of control
dose: 100.0 mg/kg/injection, schedule: Q01DX009 (ip), vehicle: suspension in saline
  T/C: 120 % of control

## CCOc1ccc(N2CSC(=S)N(c3ccc(OCC)cc3)C2)cc1
[1]
  T/C: 99 % of control
[2]
  T/C: 94 % of control
[3]
  T/C: 88 % of control

## Cc1cc(SCC(=O)c2ccc(Br)cc2)cc(C)[o+]1
[8]
  T/C: 111 % of control and 122 % of control
[9]
  T/C: 112 % of control and 119 % of control
[10]
  T/C: 98 % of control and 118 % of control
[11]
  T/C: 106 % of control
[12]
  T/C: 95 % of control

## COc1c(C(C)(C)C)cc([N+](=O)[O-])c(C)c1[N+](=O)[O-]
dose: 100.0 mg/kg/injection, schedule: Q04DX003 (ip), vehicle: Klucel (hydroxypropylcellulose) (HPC)
  T/C: 100 % of control
dose: 200.0 mg/kg/injection, schedule: Q04DX003 (ip), vehicle: Klucel (hydroxypropylcellulose) (HPC)
  T/C: 96 % of control
dose: 400.0 mg/kg/injection, schedule: Q04DX003 (ip), vehicle: Klucel (hydroxypropylcellulose) (HPC)
  T/C: 87 % of control

## Nc1nc(Cl)nc2c1ncn2C1OC(CO)C(O)C1O (stereo not given)
[10]
  T/C: 95 % of control
[11]
  T/C: 93 % of control
[12]
  T/C: 95 % of control

## CCN(CC)CCCN1c2ccccc2Sc2ccc(Cl)cc21
dose: 0.78 mg/kg/injection, schedule: Q01DX009 (ip), vehicle: saline
  T/C: 91 % of control
[16]
  T/C: 104 % of control
[17]
  T/C: 102 % of control
[8]
  T/C: 93 % of control
[9]
  T/C: 91 % of control

## COc1cccc2c1C(=O)c1c(O)c3c(c(O)c1C2=O)C[C@@](O)(/C(C)=N\NC(=O)CO)C[C@@H]3OC1CC(N)C(O)C(C)O1 (stereo not given in full)
dose: 0.39 mg/kg/injection, schedule: Q01DX009 (ip), vehicle: saline
  T/C: 117 % of control
[16]
  T/C: 162 % of control
dose: 2.5 mg/kg/injection, schedule: Q01DX001 (ip), vehicle: water
  T/C: 97 % of control and 100 % of control
[17]
  T/C: 173 % of control and 218 % of control
[8]
  T/C: 206 % of control and 375 % of control
dose: 10.0 mg/kg/injection, schedule: Q01DX001 (ip), vehicle: water
  T/C: 108 % of control and 250 % of control
dose: 20.0 mg/kg/injection, schedule: Q01DX001 (ip), vehicle: water
  T/C: 87 % of control and 102 % of control
dose: 40.0 mg/kg/injection, schedule: Q01DX001 (ip), vehicle: water
  T/C: 95 % of control

## C[C@@H]1C(=O)C[C@H]2C(C)(C)CCC[C@]2(C)[C@@]1(O)CCc1ccoc1
[7]
  T/C: 99 % of control
[1]
  T/C: 89 % of control
[2]
  T/C: 93 % of control
[3]
  T/C: 86 % of control
